Test results reported in PubChem BioAssay (NCI).
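Interpolation was linear, between the two tested concentrations surrounding the appropriate level; five concentrations were tested over 48 hours in 96-well plates. At the TGI there is no net growth.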

What was measured:
Assay in all cases: DTP human tumour cell line panel, 48 h
786-0 renal = test system: 786-0 renal
A498 renal = test system: A498 renal
A549 NSCLC = test system: A549 NSCLC
ACHN renal = test system: ACHN renal
CAKI-1 renal = test system: CAKI-1 renal
CCRF-CEM leukemia = test system: CCRF-CEM leukemia
COLO 205 colon = test system: COLO 205 colon
DLD-1 colon = test system: DLD-1 colon
DMS 114 small cell lung = test system: DMS 114 small cell lung
DMS 273 small cell lung = test system: DMS 273 small cell lung
EKVX NSCLC = test system: EKVX NSCLC
HCC-2998 colon = test system: HCC-2998 colon
HCT-116 colon = test system: HCT-116 colon
HCT-15 colon = test system: HCT-15 colon
HL-60(TB) leukemia = test system: HL-60(TB) leukemia
HOP-18 NSCLC = test system: HOP-18 NSCLC
HOP-62 NSCLC = test system: HOP-62 NSCLC
HOP-92 NSCLC = test system: HOP-92 NSCLC
HT29 colon = test system: HT29 colon
IGROV1 ovarian = test system: IGROV1 ovarian
K-562 leukemia = test system: K-562 leukemia
KM12 colon = test system: KM12 colon
KM20L2 colon = test system: KM20L2 colon
LOX IMVI melanoma = test system: LOX IMVI melanoma
LXFL 529 NSCLC = test system: LXFL 529 NSCLC
M14 melanoma = test system: M14 melanoma
M19-MEL melanoma = test system: M19-MEL melanoma
MALME-3M melanoma = test system: MALME-3M melanoma
MOLT-4 leukemia = test system: MOLT-4 leukemia
NCI-H226 lung = test system: NCI-H226 lung
NCI-H23 lung = test system: NCI-H23 lung
NCI-H460 lung = test system: NCI-H460 lung
NCI-H522 lung = test system: NCI-H522 lung
OVCAR-3 ovarian = test system: OVCAR-3 ovarian
OVCAR-4 ovarian = test system: OVCAR-4 ovarian
OVCAR-5 ovarian = test system: OVCAR-5 ovarian
OVCAR-8 ovarian = test system: OVCAR-8 ovarian
RPMI-8226 leukemia = test system: RPMI-8226 leukemia
RXF 393 renal = test system: RXF 393 renal
RXF-631 renal = test system: RXF-631 renal
SF-268 CNS = test system: SF-268 CNS
SF-295 CNS = test system: SF-295 CNS
SF-539 CNS = test system: SF-539 CNS
SK-MEL-2 melanoma = test system: SK-MEL-2 melanoma
SK-MEL-28 melanoma = test system: SK-MEL-28 melanoma
SK-MEL-5 melanoma = test system: SK-MEL-5 melanoma
SK-OV-3 ovarian = test system: SK-OV-3 ovarian
SN12C renal = test system: SN12C renal
SNB-19 CNS = test system: SNB-19 CNS
SNB-75 CNS = test system: SNB-75 CNS
SNB-78 CNS = test system: SNB-78 CNS
SR leukemia = test system: SR leukemia
SW-620 colon = test system: SW-620 colon
TK-10 renal = test system: TK-10 renal
U251 CNS = test system: U251 CNS
UACC-257 melanoma = test system: UACC-257 melanoma
UACC-62 melanoma = test system: UACC-62 melanoma
UO-31 renal = test system: UO-31 renal
XF 498 CNS = test system: XF 498 CNS

COc1ccc(CNc2cc(OC)c(OC)c(OC)c2)cc1
TGI (786-0 renal): > 100 µM | TGI (A498 renal): > 83.4 µM | TGI (A549 NSCLC): > 100 µM | TGI (ACHN renal): > 100 µM | TGI (CAKI-1 renal): > 100 µM | TGI (CCRF-CEM leukemia): > 100 µM | TGI (COLO 205 colon): 9.34 µM | TGI (DLD-1 colon): > 100 µM | TGI (DMS 114 small cell lung): 9.19 µM | TGI (DMS 273 small cell lung): > 100 µM | TGI (EKVX NSCLC): 98.9 µM | TGI (HCC-2998 colon): 32.3 µM | TGI (HCT-116 colon): > 42.4 µM | TGI (HCT-15 colon): > 100 µM | TGI (HL-60(TB) leukemia): > 24.5 µM | TGI (HOP-18 NSCLC): > 94.6 µM | TGI (HOP-62 NSCLC): > 71.5 µM | TGI (HOP-92 NSCLC): > 100 µM | TGI (HT29 colon): > 100 µM | TGI (IGROV1 ovarian): > 100 µM | TGI (K-562 leukemia): > 44.4 µM | TGI (KM12 colon): > 41.7 µM | TGI (KM20L2 colon): > 23.7 µM | TGI (LOX IMVI melanoma): > 100 µM | TGI (LXFL 529 NSCLC): > 100 µM | TGI (M14 melanoma): > 100 µM | TGI (M19-MEL melanoma): > 100 µM | TGI (MALME-3M melanoma): > 100 µM | TGI (MOLT-4 leukemia): > 77.8 µM | TGI (NCI-H226 lung): > 62.1 µM | TGI (NCI-H23 lung): > 55.9 µM | TGI (NCI-H460 lung): > 30 µM | TGI (NCI-H522 lung): 31 µM | TGI (OVCAR-3 ovarian): > 48.5 µM | TGI (OVCAR-4 ovarian): 85.1 µM | TGI (OVCAR-5 ovarian): > 83.7 µM | TGI (OVCAR-8 ovarian): > 100 µM | TGI (RPMI-8226 leukemia): 83.1 µM | TGI (RXF 393 renal): 23 µM | TGI (RXF-631 renal): > 100 µM | TGI (SF-268 CNS): 28.6 µM | TGI (SF-295 CNS): > 55.1 µM | TGI (SF-539 CNS): 35.1 µM | TGI (SK-MEL-2 melanoma): > 100 µM | TGI (SK-MEL-28 melanoma): > 100 µM | TGI (SK-MEL-5 melanoma): 14.6 µM | TGI (SK-OV-3 ovarian): > 90.5 µM | TGI (SN12C renal): > 100 µM | TGI (SNB-19 CNS): > 100 µM | TGI (SNB-75 CNS): 97.1 µM | TGI (SNB-78 CNS): 32.9 µM | TGI (SR leukemia): > 100 µM | TGI (SW-620 colon): > 100 µM | TGI (TK-10 renal): > 100 µM | TGI (U251 CNS): 24.3 µM | TGI (UACC-257 melanoma): > 100 µM | TGI (UACC-62 melanoma): > 100 µM | TGI (UO-31 renal): > 94.6 µM | TGI (XF 498 CNS): > 100 µM
